# From PubChem BioAssay AID652028 (The Scripps Research Institute Molecular Screening Center, 2013)
# The source made the active and inactive calls.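 How the source made its calls: active means fold change under 0.5 at 10 µM in a cell reporter of NFkB inflammatory signaling; inactive means the rest.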
# Tested on: HEK NFkB luciferase reporter, IL-6 stimulated, luminescence
# Experiment: NFkB signaling inhibitors, luciferase reporter, late-stage follow-up, counter-screen for STAT5 inhibitor project, HEK cells, luminescence, IL-6 stimulus, powder samples (AID 652028)
# Details: at 10 µM; stronger effect = lower value
row,Compound,fold change
1,CN1/C(=C\C(=O)Cn2nnc(-c3ccccc3)n2)C(C)(C)c2ccccc21,0.871 (inactive)
2,CN1/C(=C\C(=O)CN2CCc3ccccc3C2)C(C)(C)c2ccccc21,0.879 (inactive)
3,CCOC(=O)C1CCCN(CC(=O)/C=C2/N(C)c3ccccc3C2(C)C)C1 (stereo unspecified),0.99 (inactive)
4,O=C(C[n+]1ccc2ccccc2c1)c1ccccc1,0.911 (inactive)
5,CN1/C(=C\C(=O)C[n+]2ccccc2)C(C)(C)c2ccccc21,0.819 (inactive)
6,O=C(C[n+]1ccc2ccccc2c1)c1cc2ccccc2oc1=O,0.218
7,CC(C)(C)C(=O)C[n+]1ccc2ccccc2c1,0.915 (inactive)
8,CN1/C(=C\C(=O)CN2C(=O)C3CC=CCC3C2=O)C(C)(C)c2ccccc21 (stereo unspecified),0.828 (inactive)
9,O=C(C[n+]1ccc2ccccc2c1)c1ccc2ccccc2c1,3.27 (inactive)
10,O=C(C[n+]1ccc2ccccc2c1)Nc1ccccc1,0.947 (inactive)
11,Cc1cc[n+](CC(=O)/C=C2\N(C)c3ccccc3C2(C)C)c(C)c1,0.848 (inactive)
